Test results as given in article PMC11249646, “Small-Molecule Disruptors of the Interaction between Calcium- and Integrin-Binding Protein 1 and Integrin αIIbβ3 as Novel Antiplatelet Agents” (ACS Pharmacology & Translational Science, 2024).
Where two headings read alike, the source gives them in different places.

Columns and labels:
[1] = molecular target: T1, GST-CIB1 : F-scrambled peptide (Homo sapiens, UniProt Q99828); assay: FP scrambled-peptide counter screen, 1536-well format; format: binding; settings: for IC50: read-out: IC50 [μM] (counterscreen)
T1 construct: made in house; host or cells: BL-21 plus RIL cells (E. coli)
T1 sequence (Q99828 1-191): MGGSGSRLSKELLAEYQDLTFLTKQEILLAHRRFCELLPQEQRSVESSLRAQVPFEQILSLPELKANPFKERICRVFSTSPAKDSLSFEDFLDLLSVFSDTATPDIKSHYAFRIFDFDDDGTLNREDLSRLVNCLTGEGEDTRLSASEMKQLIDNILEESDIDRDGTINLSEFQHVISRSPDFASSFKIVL

[2] = molecular target: T2, CIB1 and αIIb interaction (CIB1-GST : F-αIIb peptide) (Homo sapiens, UniProt Q99828); assay: FP assay, 1536-well qHTS format (primary and confirmatory screen); format: binding
T2 construct: made in house; host or cells: BL-21 plus RIL cells (E. coli)
T2 sequence (Q99828 1-191): T1 sequence (Q99828 1-191)

[3] = counterscreen, qHTS curve class, negative sign = inhibitory curve
[4] = confirmatory screen, qHTS curve class, negative sign = inhibitory curve
[5] = confirmatory screen, read-out: IC50 [μM] (confirmatory screen)
[6] = Table S3, counterscreen, YES/NO call
[7] = Table S3, counterscreen, qHTS curve class, a negative sign marks inhibitory curves
[8] = Table S3, counterscreen, negative = inhibition
[9] = Table S3, confirmatory screen, qHTS curve class, a negative sign marks inhibitory curves
[10] = Table S3, confirmatory screen, negative = inhibition
[11] = qHTS primary screen hits, Table S2, negative = inhibition
[12] = qHTS primary screen hits, Table S2, negative sign = inhibitory curve, several classes where COUNT > 1
[13] = qHTS primary screen hits, Table S2, read-out: IC50
[14] = qHTS FP screen hits, Table S2, negative = inhibition
[15] = qHTS FP screen hits, Table S2, one class per curve where COUNT > 1, negative sign = inhibitory curve
[16] = qHTS FP screen hits, Table S2, read-out: IC50
[17] = Table S3, confirmatory screen, YES/NO call
[18] = Table S3, confirmatory screen, read-out: IC50 [μM] (confirmatory screen)

O=C1C[C@@](c2ccc(N3CCOCC3)cc2)(c2ccsc2)NC(=O)C1Sc1ccccc1Cl (stereo partly shown) [NCGC00420796-01]
Efficacy (%) (counterscreen) ([1]; counterscreen): -34%
Curve Class (counterscreen) [1, 3]: -1.4
IC50 ([1]; counterscreen): 6.3 µM
Efficacy (%) (confirmatory screen) ([2]; confirmatory screen): -47%
Confirm? (confirmatory screen) ([2]; confirmatory screen, YES/NO): YES
Curve Class (confirmatory screen) [2, 4]: -2.2
IC50 [2, 5]: 20 µM

Nc1nc2c(s1)C(c1ccccc1)CC(=O)N2 (stereo not shown) [NCGC00422009-03]
Confirm? (counterscreen) [1, 6]: YES
Curve Class (counterscreen) [1, 7]: -2.4
Efficacy (%) (counterscreen) [1, 8]: -45%
IC50 ([1]; Table S3, counterscreen): 39.8 µM
Curve Class (confirmatory screen) [2, 9]: 4
Efficacy (%) (confirmatory screen) [2, 10]: -35%
Efficacy (%) [2, 11]: -83%
Curve Class [2, 12]: -2.2
IC50 [2, 13]: 79.4 µM

Nc1nc2c(s1)C(c1ccc(F)cc1F)CC(=O)N2 (stereo not shown) [NCGC00422010-03]
Efficacy (%) (counterscreen) ([1]; counterscreen): -16%
Confirm? (counterscreen) ([1]; counterscreen, YES/NO): YES
Curve Class (counterscreen) [1, 3]: 4
Efficacy (%) (confirmatory screen) ([2]; confirmatory screen): -39%
Confirm? (confirmatory screen) ([2]; confirmatory screen, YES/NO): YES
Curve Class (confirmatory screen) [2, 4]: -2.4
IC50 [2, 5]: 89.1 µM
Efficacy (%) [2, 14]: -54%
Curve Class [2, 15]: -2.2
IC50 [2, 16]: 79.4 µM

Cc1ccc2c(c1)/C(=C\C(=O)c1cccs1)C(=O)N2.O=C(O)C(F)(F)F [NCGC00479180-01]
Curve Class (counterscreen) [1, 7]: -2.4
Efficacy (%) (counterscreen) [1, 8]: -64%
IC50 ([1]; Table S3, counterscreen): 11.2 µM
Confirm? (confirmatory screen) [2, 17]: YES
Curve Class (confirmatory screen) [2, 9]: -1.2
Efficacy (%) (confirmatory screen) [2, 10]: -57%
IC50 [2, 18]: 11.2 µM
Efficacy (%) [2, 11]: -36%
Curve Class [2, 12]: -1.4
IC50 [2, 13]: 15.8 µM

CC(C)C(=O)OCc1ccc(-c2nn(Cc3ccccc3)c3ccccc23)o1 [NCGC00479272-01]
Efficacy (%) (counterscreen) ([1]; counterscreen): -22%
Confirm? (counterscreen) ([1]; counterscreen, YES/NO): YES
Curve Class (counterscreen) [1, 3]: 4
Efficacy (%) (confirmatory screen) ([2]; confirmatory screen): -30%
Confirm? (confirmatory screen) ([2]; confirmatory screen, YES/NO): YES
Curve Class (confirmatory screen) [2, 4]: -2.4
IC50 [2, 5]: 35.5 µM
Efficacy (%) [2, 14]: -25%
IC50 [2, 16]: 25.1 µM

COc1cc2ccccc2cc1C(=O)N/C(S)=N/c1cc(C(=O)O)ccc1C.O=C(O)C(F)(F)F [NCGC00479324-01]
COUNTERSCREEN Efficacy (%) ([1]; counterscreen): 12%
COUNTERSCREEN Curve Class ([1]; counterscreen, qHTS curve class): 4
CONFIRMATORY SCREEN Efficacy (%) ([2]; confirmatory screen): -38%
CONFIRMATORY SCREEN Curve Class ([2]; confirmatory screen, qHTS curve class): 4
Efficacy (%) [2, 14]: -25%
IC50 [2, 16]: 12.6 µM

COc1ccccc1C(=O)/C=C1/C(=O)Nc2ccc(C)cc21.O=C(O)C(F)(F)F [NCGC00481357-01]
Efficacy (%) (counterscreen) ([1]; counterscreen): -51%
Curve Class (counterscreen) [1, 3]: -1.4
IC50 ([1]; counterscreen): 6.3 µM
Efficacy (%) (confirmatory screen) ([2]; confirmatory screen): -59%
Confirm? (confirmatory screen) ([2]; confirmatory screen, YES/NO): YES
Curve Class (confirmatory screen) [2, 4]: -1.4
IC50 [2, 5]: 5.6 µM
Efficacy (%) [2, 11]: -43%
Curve Class [2, 12]: -1.2
IC50 [2, 13]: 14.1 µM

O=C(O)c1cnn(-c2nc3cc(Cl)c(OC(F)(F)F)cc3[nH]2)c1 [NCGC00484069-01]
Efficacy (%) (counterscreen) ([1]; counterscreen): -15%
Confirm? (counterscreen) ([1]; counterscreen, YES/NO): YES
Curve Class (counterscreen) [1, 3]: 4
Efficacy (%) (confirmatory screen) ([2]; confirmatory screen): -39%
Confirm? (confirmatory screen) ([2]; confirmatory screen, YES/NO): YES
Curve Class (confirmatory screen) [2, 4]: -2.4
IC50 [2, 5]: 44.7 µM
Efficacy (%) [2, 14]: -33%
Curve Class [2, 15]: -1.2
IC50 [2, 16]: 28.2 µM

Nc1nc2c(s1)C(c1ccccc1C(F)(F)F)CC(=O)N2.O=C(O)C(F)(F)F (stereo not shown) [NCGC00488247-02]
Confirm? (counterscreen) [1, 6]: YES
Curve Class (counterscreen) [1, 7]: -2.4
Efficacy (%) (counterscreen) [1, 8]: -39%
IC50 ([1]; Table S3, counterscreen): 28.2 µM
Curve Class (confirmatory screen) [2, 9]: 4
Efficacy (%) (confirmatory screen) [2, 10]: -12%
Efficacy (%) [2, 14]: -83%
Curve Class [2, 15]: -2.2
IC50 [2, 16]: 44.7 µM

O=C(O)C(F)(F)F.O=C1CC(c2ccccc2Cl)c2sc(N3CCOCC3)nc2N1 (stereo not shown) [NCGC00488256-02]
Curve Class (counterscreen) [1, 7]: -2.2
Efficacy (%) (counterscreen) [1, 8]: -77%
IC50 ([1]; Table S3, counterscreen): 31.6 µM
Confirm? (confirmatory screen) [2, 17]: YES
Curve Class (confirmatory screen) [2, 9]: -2.4
Efficacy (%) (confirmatory screen) [2, 10]: -49%
IC50 [2, 18]: 50.1 µM
Efficacy (%) [2, 11]: -72%
Curve Class [2, 12]: -2.2
IC50 [2, 13]: 79.4 µM

CNc1nc2c(s1)C(c1c(F)cccc1Cl)CC(=O)N2.O=C(O)C(F)(F)F (stereo not shown) [NCGC00488265-02]
Curve Class (counterscreen) [1, 7]: 4
Efficacy (%) (counterscreen) [1, 8]: 0%
Curve Class (confirmatory screen) [2, 9]: 4
Efficacy (%) (confirmatory screen) [2, 10]: -12%
Efficacy (%) [2, 11]: -65%
Curve Class [2, 12]: -2.2
IC50 [2, 13]: 56.2 µM
